Columns and labels:
Type in all cases: in vivo
[1] = tested on: Echinochloa oryzacola Vasing.; assay: Test Example 1: herbicidal activity, application before weed generation in submerged conditions; details: Application herbicide amount 320 g/ha; Seventeenth Table
Outline: (§1)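 Pre-emergence application to water surface of submerged pots (4 cm depth, alluvial soil) on sowing day, with 2.5-leaf rice transplanted; emulsion diluted to g/ha rates. Grown in greenhouse at 25–30 °C; 0–5 herbicidal/crop-effect score after three weeks.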

Monochoria vaginalis = assay: as above; details: Application herbicide amount 320 g/ha; Seventeenth Table
Outline: as §1

Scirpus juncoides = assay: as above; details: Application herbicide amount 320 g/ha; Seventeenth Table
Outline: as §1

[2] = tested on: transplanted Oryza sativa; assay: Test Example 1: effect on crop, application before weed generation in submerged conditions; details: Application herbicide amount 320 g/ha; Seventeenth Table
Outline: as §1

[3] = tested on: Beta vulgaris ssp. vulgaris; assay: Test Example 4: effect on crop by application to foliage (diluvial soil, plastic box); details: Application herbicide amount 320 g/ha; effect on crop
Outline: (§2)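 Plants were grown in sterilized diluvial soil in a greenhouse at 25-30° C for 14 days, then sprayed on stems and leaves with water-diluted emulsion formulation at set rates in g/ha. Weed control and crop injury were scored 3 weeks after treatment on a 0-5 herbicidal-ratio scale, from 0 (≤5%) to 5 (≥90%).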

Brassica campestris L. = assay: as above; details: Application herbicide amount 320 g/ha; effect on crop
Outline: as §2

Glycine max = assay: as above; details: Application herbicide amount 320 g/ha; effect on crop
Outline: as §2

Triticum aestivum = assay: as above; details: Application herbicide amount 320 g/ha; effect on crop
Outline: as §2

Zea mays = assay: as above; details: Application herbicide amount 320 g/ha; effect on crop
Outline: as §2

[4] = tested on: directly sowed Oryza sativa; assay: as above; details: Application herbicide amount 320 g/ha; effect on crop
Outline: as §2

Row | Compound | A: Echinochloa oryzicola Vasing. (herbicidal effect grade) [1] | C: Monochoria vaginalis (herbicidal effect grade) (Monochoria vaginalis) | B: Scirpus juncoides (herbicidal effect grade) (Scirpus juncoides) | a: transplanted Oryza sativa (effect on crop grade) [2] | f [3] | g (Brassica campestris L.) | c (Glycine max) | e (Triticum aestivum) | b (Zea mays) | d [4]
1 | Cc1nnc(NC(=O)c2ccc(C(F)(F)F)n3c(-c4cncs4)nnc23)o1 [1-058] | 5 (Herbicidal ratio of 90% or more (almost completely withered)) | 4 (Herbicidal ratio of 70% or more and less than 90%) | 5 (Herbicidal ratio of 90% or more (almost completely withered)) | 4 (Herbicidal ratio of 70% or more and less than 90%) | 5 (Herbicidal ratio of 90% or more (almost completely withered)) | 4 (Herbicidal ratio of 70% or more and less than 90%) | 4 (Herbicidal ratio of 70% or more and less than 90%) | 1 (Herbicidal ratio of 5% or more and less than 20%) | 5 (Herbicidal ratio of 90% or more (almost completely withered)) | 4 (Herbicidal ratio of 70% or more and less than 90%)
2 | C#CCSc1nnc2c(C(=O)Nc3nnc(C)o3)ccc(C(F)(F)F)n12 [1-065] | 5 (Herbicidal ratio of 90% or more (almost completely withered)) | 2 (Herbicidal ratio of 20% or more and less than 40%) | 3 (Herbicidal ratio of 40% or more and less than 70%) | 0 (Herbicidal ratio of 5% or less (almost no effect)) | 4 (Herbicidal ratio of 70% or more and less than 90%) | 2 (Herbicidal ratio of 20% or more and less than 40%) | 0 (Herbicidal ratio of 5% or less (almost no effect)) | 0 (Herbicidal ratio of 5% or less (almost no effect)) | 0 (Herbicidal ratio of 5% or less (almost no effect)) | 3 (Herbicidal ratio of 40% or more and less than 70%)
3 | Cc1nnc(NC(=O)c2ccc(C(F)(F)C(F)(F)F)n3c(C(C)C)nnc23)o1 [1-066] | 5 (Herbicidal ratio of 90% or more (almost completely withered)) | 2 (Herbicidal ratio of 20% or more and less than 40%) | 4 (Herbicidal ratio of 70% or more and less than 90%) | 2 (Herbicidal ratio of 20% or more and less than 40%) | 4 (Herbicidal ratio of 70% or more and less than 90%) | 0 (Herbicidal ratio of 5% or less (almost no effect)) | 0 (Herbicidal ratio of 5% or less (almost no effect)) | 0 (Herbicidal ratio of 5% or less (almost no effect)) | 0 (Herbicidal ratio of 5% or less (almost no effect)) | 3 (Herbicidal ratio of 40% or more and less than 70%)
4 | Cc1nnc(NC(=O)c2ccc(C(F)(F)F)n3c(CO)nnc23)o1 [1-067] | 3 (Herbicidal ratio of 40% or more and less than 70%) | 0 (Herbicidal ratio of 5% or less (almost no effect)) | 0 (Herbicidal ratio of 5% or less (almost no effect)) | 0 (Herbicidal ratio of 5% or less (almost no effect)) | 4 (Herbicidal ratio of 70% or more and less than 90%) | 4 (Herbicidal ratio of 70% or more and less than 90%) | 0 (Herbicidal ratio of 5% or less (almost no effect)) | 0 (Herbicidal ratio of 5% or less (almost no effect)) | 2 (Herbicidal ratio of 20% or more and less than 40%) | 3 (Herbicidal ratio of 40% or more and less than 70%)
5 | Cc1nnc(NC(=O)c2ccc(C(F)(F)F)n3c(C=O)nnc23)o1 [1-068] | 2 (Herbicidal ratio of 20% or more and less than 40%) | 3 (Herbicidal ratio of 40% or more and less than 70%) | 3 (Herbicidal ratio of 40% or more and less than 70%) | 0 (Herbicidal ratio of 5% or less (almost no effect)) | 4 (Herbicidal ratio of 70% or more and less than 90%) | 4 (Herbicidal ratio of 70% or more and less than 90%) | 0 (Herbicidal ratio of 5% or less (almost no effect)) | 1 (Herbicidal ratio of 5% or more and less than 20%) | 2 (Herbicidal ratio of 20% or more and less than 40%) | 3 (Herbicidal ratio of 40% or more and less than 70%)
6 | COc1ccc(Cc2nnc3c(C(=O)Nc4nnc(C)o4)ccc(C(F)(F)F)n23)cc1 [1-069] | 5 (Herbicidal ratio of 90% or more (almost completely withered)) | 3 (Herbicidal ratio of 40% or more and less than 70%) | 4 (Herbicidal ratio of 70% or more and less than 90%) | 0 (Herbicidal ratio of 5% or less (almost no effect)) | 5 (Herbicidal ratio of 90% or more (almost completely withered)) | 3 (Herbicidal ratio of 40% or more and less than 70%) | 1 (Herbicidal ratio of 5% or more and less than 20%) | 1 (Herbicidal ratio of 5% or more and less than 20%) | 0 (Herbicidal ratio of 5% or less (almost no effect)) | 3 (Herbicidal ratio of 40% or more and less than 70%)
7 | COc1cc(OC)cc(-c2nnc3c(C(=O)Nc4nnc(C)o4)ccc(C(F)(F)F)n23)c1 [1-070] | 5 (Herbicidal ratio of 90% or more (almost completely withered)) | 5 (Herbicidal ratio of 90% or more (almost completely withered)) | 5 (Herbicidal ratio of 90% or more (almost completely withered)) | 3 (Herbicidal ratio of 40% or more and less than 70%) | 4 (Herbicidal ratio of 70% or more and less than 90%) | 3 (Herbicidal ratio of 40% or more and less than 70%) | 0 (Herbicidal ratio of 5% or less (almost no effect)) | 0 (Herbicidal ratio of 5% or less (almost no effect)) | 0 (Herbicidal ratio of 5% or less (almost no effect)) | 4 (Herbicidal ratio of 70% or more and less than 90%)
8 | Cc1nnc(NC(=O)c2ccc(C(F)(F)F)n3c(-c4cc(Cl)cc(Cl)c4)nnc23)o1 [1-071] | 4 (Herbicidal ratio of 70% or more and less than 90%) | 4 (Herbicidal ratio of 70% or more and less than 90%) | 5 (Herbicidal ratio of 90% or more (almost completely withered)) | 0 (Herbicidal ratio of 5% or less (almost no effect)) | 2 (Herbicidal ratio of 20% or more and less than 40%) | 0 (Herbicidal ratio of 5% or less (almost no effect)) | 0 (Herbicidal ratio of 5% or less (almost no effect)) | 0 (Herbicidal ratio of 5% or less (almost no effect)) | 0 (Herbicidal ratio of 5% or less (almost no effect)) | 0 (Herbicidal ratio of 5% or less (almost no effect))
9 | COCC[S+]([O-])c1nnc2c(C(=O)Nc3nnc(C)o3)ccc(C(F)(F)F)n12 (stereo not shown) [1-073] | 4 (Herbicidal ratio of 70% or more and less than 90%) | 2 (Herbicidal ratio of 20% or more and less than 40%) | 3 (Herbicidal ratio of 40% or more and less than 70%) | 3 (Herbicidal ratio of 40% or more and less than 70%) | 5 (Herbicidal ratio of 90% or more (almost completely withered)) | 3 (Herbicidal ratio of 40% or more and less than 70%) | 0 (Herbicidal ratio of 5% or less (almost no effect)) | 3 (Herbicidal ratio of 40% or more and less than 70%) | 5 (Herbicidal ratio of 90% or more (almost completely withered)) | 4 (Herbicidal ratio of 70% or more and less than 90%)
10 | C=CC[S+]([O-])c1nnc2c(C(=O)Nc3nnc(C)o3)ccc(C(F)(F)F)n12 (stereo not shown) [1-074] | 2 (Herbicidal ratio of 20% or more and less than 40%) | 0 (Herbicidal ratio of 5% or less (almost no effect)) | 2 (Herbicidal ratio of 20% or more and less than 40%) | 0 (Herbicidal ratio of 5% or less (almost no effect)) | 4 (Herbicidal ratio of 70% or more and less than 90%) | 3 (Herbicidal ratio of 40% or more and less than 70%) | 0 (Herbicidal ratio of 5% or less (almost no effect)) | 0 (Herbicidal ratio of 5% or less (almost no effect)) | 0 (Herbicidal ratio of 5% or less (almost no effect)) | 3 (Herbicidal ratio of 40% or more and less than 70%)

Source: US9708314B2, “Heterocyclic amide compound” (NISSAN CHEMICAL INDUSTRIES, LTD., priority 2013, dated 2017)
